Patent US6737383B1, “Herbicidal oxadiazolidines” (priority 1999, dated 2004)

How the values were obtained:
bedstraw = assay: Test B pre/postemergence bedstraw; assay type: in vivo, Galium aparine
Method in brief: (§1)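 Response is a visual 0-to-10 score relative to untreated plants, where 0 means no effect and 10 means complete control, taken twelve to sixteen days after application. Treatments went onto soil at planting and onto foliage of 1- to 4-leaf plants, using a surfactant-containing non-phytotoxic solvent.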

blackgrass = assay: Test B pre/postemergence blackgrass; assay type: in vivo, Alopecurus myosuroides
Method in brief: as §1

surinam grass = assay: Test B pre/postemergence surinam grass; assay type: in vivo, Brachiaria decumbens
Method in brief: as §1

cocklebur = assay: Test B pre/postemergence cocklebur; assay type: in vivo, Xanthium strumarium
Method in brief: as §1

corn = assay: Test B pre/postemergence corn; assay type: in vivo, Zea mays
Method in brief: as §1

crabgrass = assay: Test B pre/postemergence crabgrass; assay type: in vivo, Digitaria sanguinalis
Method in brief: as §1

giant foxtail = assay: Test B pre/postemergence giant foxtail; assay type: in vivo, Setaria faberii
Method in brief: as §1

morningglory = assay: Test B pre/postemergence morningglory; assay type: in vivo, Ipomoea hederacea
Method in brief: as §1

pigweed = assay: Test B pre/postemergence pigweed; assay type: in vivo, Amaranthus retroflexus
Method in brief: as §1

rape = assay: Test B pre/postemergence rape; assay type: in vivo, Brassica napus
Method in brief: as §1

soybean = assay: Test B pre/postemergence soybean; assay type: in vivo, Glycine max
Method in brief: as §1

sugar beet = assay: Test B pre/postemergence sugar beet; assay type: in vivo, Beta vulgaris
Method in brief: as §1

velvetleaf = assay: Test B pre/postemergence velvetleaf; assay type: in vivo, Abutilon theophrasti
Method in brief: as §1

wheat = assay: Test B pre/postemergence wheat; assay type: in vivo, Triticum aestivum
Method in brief: as §1

wild oat = assay: Test B pre/postemergence wild oat; assay type: in vivo, Avena fatua
Method in brief: as §1

purple nutsedge = assay: Test B pre/postemergence purple nutsedge; assay type: in vivo, Cyperus rotundus
Method in brief: as §1

[1] = Preemergence, Rate 62 g/ha, scale of 0 to 10 where 0 is no effect and 10 is complete control
[2] = Preemergence, Rate 125 g/ha, scale of 0 to 10 where 0 is no effect and 10 is complete control
[3] = Preemergence, Rate 250 g/ha, scale 0 (no effect) to 10 (complete control)
[4] = Rate 500 g/ha, Preemergence, scale 0 to 10 (0 no effect, 10 complete control)
[5] = Preemergence, Rate 125 g/ha, 0 is no effect, 10 is complete control
[6] = Preemergence, Rate 250 g/ha, scale 0 to 10, 0 is no effect, 10 is complete control
[7] = Preemergence, Rate 500 g/ha, scale 0 to 10 (0 no effect, 10 complete control)
[8] = Rate 62 g/ha, Postemergence, scale of 0 to 10 where 0 is no effect and 10 is complete control
[9] = Rate 125 g/ha, Postemergence, scale 0 to 10
[10] = Rate 500 g/ha, Postemergence, scale 0 to 10

## COC(CCl)n1c(=O)on(C(=O)N(c2ccc(Cl)cc2)C(C)C)c1=O (stereo not shown) [Compound 725]
bedstraw; [1]
  Bedstraw plant response rating: 0
bedstraw; [2]
  Plant response rating, Bedstraw: 0
bedstraw; [3]
  Bedstraw plant response rating: 0
bedstraw; [4]
  Bedstraw plant response rating: 0
blackgrass; [1]
  Blackgrass plant response rating: 2
blackgrass; [2]
  Plant response rating, Blackgrass: 4
blackgrass; [3]
  Blackgrass plant response rating: 7
blackgrass; [4]
  Blackgrass plant response rating: 7
Surinam grass; [1]
  B. signalgrass plant response rating: 0
Surinam grass; [2]
  Plant response rating, B. signalgrass: 3
Surinam grass; [3]
  B. signalgrass plant response rating: 4
Surinam grass; [4]
  B. signalgrass plant response rating: 4
cocklebur; [1]
  Cocklebur plant response rating: 0
cocklebur; [2]
  Plant response rating, Cocklebur: 0
cocklebur; [3]
  Cocklebur plant response rating: 0
cocklebur; [4]
  Cocklebur plant response rating: 0
corn; [1]
  Corn plant response rating: 0
corn; [2]
  Plant response rating, Corn: 0
corn; [3]
  Corn plant response rating: 0
corn; [4]
  Corn plant response rating: 0
crabgrass; [1]
  Crabgrass plant response rating: 6
crabgrass; [2]
  Plant response rating, Crabgrass: 6
crabgrass; [3]
  Crabgrass plant response rating: 8
crabgrass; [4]
  Crabgrass plant response rating: 8
Giant foxtail; [1]
  Giant foxtail plant response rating: 7
Giant foxtail; [2]
  Plant response rating, Giant foxtail: 8
Giant foxtail; [3]
  Giant foxtail plant response rating: 10
Giant foxtail; [4]
  Giant foxtail plant response rating: 10
morningglory; [1]
  Morningglory plant response rating: 1
morningglory; [2]
  Plant response rating, Morningglory: 1
morningglory; [3]
  Morningglory plant response rating: 1
morningglory; [4]
  Morningglory plant response rating: 3
pigweed; [1]
  Redroot pigweed plant response rating: 0
pigweed; [2]
  Plant response rating, Redroot pigweed: 0
pigweed; [3]
  Redroot pigweed plant response rating: 0
pigweed; [4]
  Redroot pigweed plant response rating: 3
rape; [1]
  Rape plant response rating: 0
rape; [2]
  Plant response rating, Rape: 0
rape; [3]
  Rape plant response rating: 0
rape; [4]
  Rape plant response rating: 0
soybean; [1]
  Soybean plant response rating: 0
soybean; [2]
  Plant response rating, Soybean: 0
soybean; [3]
  Soybean plant response rating: 0
soybean; [4]
  Soybean plant response rating: 0
Sugar beet; [1]
  Sugarbeets plant response rating: 0
Sugar beet; [2]
  Plant response rating, Sugarbeets: 0
Sugar beet; [3]
  Sugarbeets plant response rating: 0
Sugar beet; [4]
  Sugarbeets plant response rating: 2
velvetleaf; [1]
  Velvetleaf plant response rating: 0
velvetleaf; [2]
  Plant response rating, Velvetleaf: 0
velvetleaf; [3]
  Velvetleaf plant response rating: 0
velvetleaf; [4]
  Velvetleaf plant response rating: 0
wheat; [1]
  Wheat plant response rating: 0
wheat; [2]
  Plant response rating, Wheat: 0
wheat; [3]
  Wheat plant response rating: 0
wheat; [4]
  Wheat plant response rating: 0
Wild oat; [1]
  Wild oats plant response rating: 0
Wild oat; [2]
  Plant response rating, Wild oats: 2
Wild oat; [3]
  Wild oats plant response rating: 4
Wild oat; [4]
  Wild oats plant response rating: 6
Purple nutsedge; [1]
  Nutsedge plant response rating: 0
Purple nutsedge; [2]
  Plant response rating, Nutsedge: 0
Purple nutsedge; [4]
  Nutsedge plant response rating: 0

## CC(C)N(C(=O)n1oc(=O)n([C@H](C)c2ccccc2)c1=O)c1ccc(F)cc1 [Compound 179]
bedstraw; [1]
  Bedstraw plant response rating: 0
bedstraw; [5]
  Bedstraw plant response rating (0 to 10 scale): 0
bedstraw; [6]
  Bedstraw plant response rating: 0
bedstraw; [7]
  Bedstraw plant response rating: 0
bedstraw; [8]
  Bedstraw plant response rating: 0
bedstraw; [9]
  Bedstraw plant response rating: 5
bedstraw; Rate 250 g/ha, Postemergence
  Plant response rating (0 to 10; 0 is no effect, 10 is complete control), Bedstraw: 5
bedstraw; [10]
  Bedstraw plant response rating: 10
blackgrass; [1]
  Blackgrass plant response rating: 0
blackgrass; [5]
  Blackgrass plant response rating (0 to 10 scale): 0
blackgrass; [6]
  Blackgrass plant response rating: 2
blackgrass; [7]
  Blackgrass plant response rating: 2
blackgrass; [8]
  Blackgrass plant response rating: 0
blackgrass; [9]
  Blackgrass plant response rating: 2
blackgrass; Rate 250 g/ha, Postemergence
  Plant response rating (0 to 10; 0 is no effect, 10 is complete control), Blackgrass: 4
blackgrass; [10]
  Blackgrass plant response rating: 6
Surinam grass; [1]
  B. signalgrass plant response rating: 7
Surinam grass; [5]
  B. signalgrass plant response rating (0 to 10 scale): 8
Surinam grass; [7]
  B. signalgrass plant response rating: 9
Surinam grass; [8]
  B. signalgrass plant response rating: 0
Surinam grass; Rate 125 g/ha, Postemergence, scale 0 (no effect) to 10 (complete control)
  B. signalgrass plant response rating: 0
Surinam grass; Rate 250 g/ha, Postemergence, scale 0 to 10, 0 is no effect, 10 is complete control
  Plant response rating, B. signalgrass: 0
Surinam grass; Rate 500 g/ha, Postemergence, scale 0 to 10, 0 no effect, 10 complete control
  B. signalgrass plant response rating: 0
cocklebur; [1]
  Cocklebur plant response rating: 0
cocklebur; [5]
  Cocklebur plant response rating (0 to 10 scale): 0
cocklebur; [6]
  Cocklebur plant response rating: 0
cocklebur; [7]
  Cocklebur plant response rating: 0
cocklebur; [8]
  Cocklebur plant response rating: 0
cocklebur; [9]
  Cocklebur plant response rating: 0
cocklebur; Rate 250 g/ha, Postemergence
  Plant response rating (0 to 10; 0 is no effect, 10 is complete control), Cocklebur: 0
cocklebur; [10]
  Cocklebur plant response rating: 1
corn; [1]
  Corn plant response rating: 0
corn; [5]
  Corn plant response rating (0 to 10 scale): 0
corn; [6]
  Corn plant response rating: 0
corn; [7]
  Corn plant response rating: 0
corn; [8]
  Corn plant response rating: 0
corn; [9]
  Corn plant response rating: 0
corn; Rate 250 g/ha, Postemergence
  Plant response rating (0 to 10; 0 is no effect, 10 is complete control), Corn: 0
corn; [10]
  Corn plant response rating: 0
crabgrass; [1]
  Crabgrass plant response rating: 6
crabgrass; [5]
  Crabgrass plant response rating (0 to 10 scale): 7
crabgrass; [6]
  Crabgrass plant response rating: 9
crabgrass; [7]
  Crabgrass plant response rating: 9
crabgrass; [8]
  Crabgrass plant response rating: 0
crabgrass; [9]
  Crabgrass plant response rating: 0
crabgrass; Rate 250 g/ha, Postemergence
  Plant response rating (0 to 10; 0 is no effect, 10 is complete control), Crabgrass: 2
crabgrass; [10]
  Crabgrass plant response rating: 9
Giant foxtail; [1]
  Giant foxtail plant response rating: 6
Giant foxtail; [5]
  Giant foxtail plant response rating (0 to 10 scale): 9
Giant foxtail; [6]
  Giant foxtail plant response rating: 10
Giant foxtail; [7]
  Giant foxtail plant response rating: 10
Giant foxtail; [8]
  Giant foxtail plant response rating: 0
Giant foxtail; [9]
  Giant foxtail plant response rating: 0
Giant foxtail; Rate 250 g/ha, Postemergence
  Plant response rating (0 to 10; 0 is no effect, 10 is complete control), Giant foxtail: 0
Giant foxtail; [10]
  Giant foxtail plant response rating: 4
morningglory; [1]
  Morningglory plant response rating: 0
morningglory; [5]
  Morningglory plant response rating (0 to 10 scale): 0
morningglory; [6]
  Morningglory plant response rating: 0
morningglory; [7]
  Morningglory plant response rating: 0
morningglory; [8]
  Morningglory plant response rating: 4
morningglory; [9]
  Morningglory plant response rating: 5
morningglory; Rate 250 g/ha, Postemergence
  Plant response rating (0 to 10; 0 is no effect, 10 is complete control), Morningglory: 5
morningglory; [10]
  Morningglory plant response rating: 5
pigweed; [1]
  Redroot pigweed plant response rating: 7
pigweed; [5]
  Redroot pigweed plant response rating (0 to 10 scale): 7
pigweed; [6]
  Redroot pigweed plant response rating: 7
pigweed; [7]
  Redroot pigweed plant response rating: 10
pigweed; [8]
  Redroot pigweed plant response rating: 0
pigweed; [9]
  Redroot pigweed plant response rating: 0
pigweed; Rate 250 g/ha, Postemergence
  Plant response rating (0 to 10; 0 is no effect, 10 is complete control), Redroot pigweed: 4
pigweed; [10]
  Redroot pigweed plant response rating: 8
rape; [1]
  Rape plant response rating: 0
rape; [5]
  Rape plant response rating (0 to 10 scale): 0
rape; [6]
  Rape plant response rating: 2
rape; [7]
  Rape plant response rating: 4
rape; [8]
  Rape plant response rating: 0
rape; [9]
  Rape plant response rating: 0
rape; Rate 250 g/ha, Postemergence
  Plant response rating (0 to 10; 0 is no effect, 10 is complete control), Rape: 0
rape; [10]
  Rape plant response rating: 2
soybean; [1]
  Soybean plant response rating: 0
soybean; [5]
  Soybean plant response rating (0 to 10 scale): 0
soybean; [6]
  Soybean plant response rating: 0
soybean; [7]
  Soybean plant response rating: 0
soybean; [8]
  Soybean plant response rating: 1
soybean; [9]
  Soybean plant response rating: 1
soybean; Rate 250 g/ha, Postemergence
  Plant response rating (0 to 10; 0 is no effect, 10 is complete control), Soybean: 1
soybean; [10]
  Soybean plant response rating: 1
Sugar beet; [1]
  Sugarbeets plant response rating: 0
Sugar beet; [5]
  Sugarbeets plant response rating (0 to 10 scale): 0
Sugar beet; [6]
  Sugarbeets plant response rating: 0
Sugar beet; [7]
  Sugarbeets plant response rating: 0
Sugar beet; [8]
  Sugarbeets plant response rating: 0
Sugar beet; [9]
  Sugarbeets plant response rating: 0
Sugar beet; Rate 250 g/ha, Postemergence
  Plant response rating (0 to 10; 0 is no effect, 10 is complete control), Sugarbeets: 2
Sugar beet; [10]
  Sugarbeets plant response rating: 6
velvetleaf; [1]
  Velvetleaf plant response rating: 0
velvetleaf; [5]
  Velvetleaf plant response rating (0 to 10 scale): 0
velvetleaf; [6]
  Velvetleaf plant response rating: 0
velvetleaf; [7]
  Velvetleaf plant response rating: 5
velvetleaf; [9]
  Velvetleaf plant response rating: 0
velvetleaf; Rate 250 g/ha, Postemergence
  Plant response rating (0 to 10; 0 is no effect, 10 is complete control), Velvetleaf: 0
velvetleaf; [10]
  Velvetleaf plant response rating: 3
wheat; [1]
  Wheat plant response rating: 0
wheat; [5]
  Wheat plant response rating (0 to 10 scale): 0
wheat; [6]
  Wheat plant response rating: 0
wheat; [7]
  Wheat plant response rating: 2
wheat; [9]
  Wheat plant response rating: 0
wheat; Rate 250 g/ha, Postemergence
  Plant response rating (0 to 10; 0 is no effect, 10 is complete control), Wheat: 0
wheat; [10]
  Wheat plant response rating: 0
Wild oat; [1]
  Wild oats plant response rating: 0
Wild oat; [5]
  Wild oats plant response rating (0 to 10 scale): 0
Wild oat; [6]
  Wild oats plant response rating: 0
Wild oat; [7]
  Wild oats plant response rating: 3
Wild oat; [9]
  Wild oats plant response rating: 0
Wild oat; Rate 250 g/ha, Postemergence
  Plant response rating (0 to 10; 0 is no effect, 10 is complete control), Wild oats: 0
Wild oat; [10]
  Wild oats plant response rating: 2
Purple nutsedge; [1]
  Nutsedge plant response rating: 0
Purple nutsedge; [5]
  Nutsedge plant response rating (0 to 10 scale): 0
Purple nutsedge; [6]
  Nutsedge plant response rating: 0
Purple nutsedge; [7]
  Nutsedge plant response rating: 10
Purple nutsedge; [8]
  Nutsedge plant response rating: 0
Purple nutsedge; [9]
  Nutsedge plant response rating: 0
Purple nutsedge; Rate 250 g/ha, Postemergence
  Plant response rating (0 to 10; 0 is no effect, 10 is complete control), Nutsedge: 0
Purple nutsedge; [10]
  Nutsedge plant response rating: 0
